According to ChEMBL document CHEMBL1147516, “Synthesis and evaluation of lasonolide A analogues” (2004):

Key:
Format in all cases: functional
Conditions in all cases: Homo sapiens
A549 = experiment: Growth inhibition against A549 cell line was evaluated
HCT-116 = experiment: Growth inhibition against HCT116 cell line was evaluated
NCI-H46 = experiment: Growth inhibition against NCI-H460 cell line was evaluated

| SMILES | GI50 (A549) | GI50 (HCT-116) | GI50 (NCI-H46) |
| --- | --- | --- | --- |
| CCCCCCCCCCCCOC(=O)[C@H](O)C/C=C\C[C@@H]1O[C@@H]2/C=C/C/C=C/C(C)=C\[C@H]3O[C@@H](C/C=C/C=C/C(=O)O[C@H](C2)[C@@]1(C)CO)C[C@H](O)[C@H]3C | 200 nM | 190 nM | 170 nM |
| C=C(CCC(C)C)COC(=O)[C@H](O)C/C=C\C[C@@H]1O[C@@H]2/C=C/C/C=C/C(C)=C\[C@H]3O[C@@H](C/C=C/C=C/C(=O)O[C@H](C2)[C@@]1(C)CCO)C[C@H](O)[C@H]3C | 800 nM | 1800 nM | 1000 nM |
| C=C(CCC(C)C)COC(=O)[C@H](O)C/C=C\C[C@@H]1O[C@@H]2/C=C/C/C=C/C(C)=C\[C@@H]3C[C@@H](O)C[C@H](C/C=C/C=C/C(=O)O[C@H](C2)[C@@]1(C)CO)O3 | 100 nM | 45 nM | 65 nM |
| C=C(CCC(C)C)COC(=O)[C@H](O)C/C=C\C[C@@H]1O[C@@H]2/C=C/C/C=C/C(C)=C\[C@H]3O[C@@H](C/C=C/C=C/C(=O)O[C@H](C2)[C@@]1(C)CO)C[C@H](O)[C@H]3C [LASONOLIDE A] | 15 nM | 3 nM | < 3 nM |
| CCOC(=O)[C@H](O)C/C=C\C[C@@H]1O[C@@H]2/C=C/C/C=C/C(C)=C\[C@H]3O[C@@H](C/C=C/C=C/C(=O)O[C@H](C2)[C@@]1(C)CO)C[C@H](O)[C@H]3C [LASONOLIDE E] | 7 nM | 100 nM | 15 nM |
